Entries after “also recorded” stand apart in the source; their conditions may differ. Blank lines part the entries; values can stand above or below the compound they belong to. Where a SMILES comes first, the peptide text is derived from it. [ ]: non-standard residue; d: D form. The star is where a group is joined. Daunorubicin(13-NOCH2CO) = COc1cccc2c1C(=O)c1c(O)c3c(c(O)c1C2=O)C[C@@](O)(C(C)=NOCC(=O)*)C[C@@H]3O[C@H]1C[C@H](N)[C@H](O)[C@H](C)O1; Sta = CC(C)C[C@H](N)[C@@H](O)CC(=O)O; Nle = CCCC[C@H](N)C(=O)O; Aib = CC(C)(N)C(=O)O; βAla = NCCC(=O)O
Columns and labels:
mouse plasma = details: 37 °C, up to 24 h
incomplete DMEM = details: 37 °C, up to 3 h
[1] = rat liver lysosomal homogenate; details: male Wistar rats, 37 °C, up to 72 h
[2] = tested on: MDA-MB-231 human breast adenocarcinoma cells; test: MTT assay, in vitro cytostatic effect; type: cell-based; details: 24 h treatment at 3.125–25 µM, then cultured up to 72 h, mean ± SD, n = 2 independent experiments with four parallels
Protocol: (§1) Cells were distributed into 96-well tissue culture plates with an initial cell number of 5.0 × 10^3 per well. After 24 h incubation at 37 °C, the cells were treated with the compounds in 200 µL final volume containing 1.0 v/v% DMSO and 10% H2O. […] After incubation, the cells were washed twice with a serum-free medium. To determine the in vitro cytostatic effect, the cells were further cultured up to 72 h in a 10% serum-containing medium. A solution of 3-(4,5-dimethylthiazol-2-yl)-2,5-diphenyltetrazolium bromide and MTT-solution, (45 µL, 2 mg/mL, final concentration: […]) were added to each well. The respiratory chain [67] and other electron transport systems reduce MTT, and thereby form non-water-soluble violet formazan crystals within the cell. […] After 3 h of incubation, the cells were centrifuged for 5 min at 1000 g and the supernatant was removed. The obtained formazan crystals were dissolved in DMSO (100 μL) and the optical density (OD) of the samples was measured at λ = 540 and 620 nm, respectively, using ELISA Reader (iEMS Reader, Labsystems, Finland). OD620 values were subtracted from OD540 values. The percentage of cytostasis was calculated by using the following equation:Cytostatic effect (%) = [1 − (ODtreated/ODcontrol)] × 100(1)
(§2) Values of ODtreated and ODcontrol correspond to the optical densities of the treated and the control cells, respectively. In each case, two independent experiments were carried out with four parallel measurements. The 50% inhibitory concentration (IC50) values were determined from the dose–response curves. The curves were defined using Microcal™ Origin 2018 software: cytostasis was plotted as a function of concentration, fitted to a sigmoidal curve, and based on this curve, the half-maximal inhibitory concentration (IC50) value was determined. IC50 represents the concentration of a compound that is required for 50% inhibition in vitro and is expressed in micromolar units.

[3] = tested on: MDA-MB-453 human metastatic epithelial breast carcinoma cells; test: MTT assay, in vitro cytostatic effect; type: cell-based; details: 24 h treatment at 3.125–25 µM, then cultured up to 72 h, mean ± SD, n = 2 independent experiments with four parallels
Protocol: as §1, §2

[4] = tested on: PC-3 human prostate adenocarcinoma cells; test: MTT assay, in vitro cytostatic effect; type: cell-based; details: 24 h treatment at 3.125–25 µM, then cultured up to 72 h, mean ± SD, n = 2 independent experiments with four parallels
Protocol: as §1, §2

[5] = Stability in incomplete (serum-free) DMEM; type: in vitro ADME; details: 25 µM, 37 °C, 600 rpm, LC–MS, n = 2
Protocol: The conjugates were incubated in incomplete DMEM for 3 h (similarly to the internalisation studies) or in 2.5% FBS containing DMEM for 24 h (conditions for the MTT assay). […] No significant loss of L1 and L5 (<20%) or L6 (<30%) was observed after 3 h (see Supplementary Materials, Figure S17).
DMSO stock solutions of the conjugates (2.5 mM) were diluted in DMEM free from or containing 2.5% FBS, to a final concentration of 25 μM. The mixture was incubated and stirred at 37 °C, 600 rpm, and 30 µL aliquots were collected after 0 min, 0.5, 1, 2, 4, 8 and 24 h, in duplicates. Then, to each sample, 90 µL of 0.1% formic acid containing MeCN was added and the samples were frozen at −25 °C for ≥30 min to aid protein precipitation. Large FBS components were removed by centrifugation (15 min, 5000 g, 4 °C). Aliquots of 50 µL supernatant were diluted with an equal volume of ddH2O + 0.1% formic acid and analysed by LC–MS. Control measurements were performed in the same manner (25 μM bioconjugate in 100% ddH2O).

[6] = Stability in mouse plasma; type: in vitro ADME; details: 37 °C, HPLC-MS; for Time after which release of the toxic metabolite Dau=Aoa-Leu-OH starts: 10 µM, for L5 and L6 in a considerably low amount; for remaining at 24 h, 10 μM: 600 rpm, n = 3, read-out: Intact conjugate after one day (24 h)
Protocol: Due to their low IC50 values and internalisation on the tested cell lines, conjugates L1, L5 and L6 were chosen for investigation of their stability in mouse plasma, as potential candidates for in vivo studies. They were incubated at a concentration of 10 µM, with mouse plasma for 24 h at 37 °C. Samples were collected at 0 h, 30 min, 1 h, 2 h, 4 h, 8 h and 24 h and analysed by HPLC-MS. […] Furthermore, after 2 h, L1 starts to release the toxic metabolite Dau=Aoa-Leu-OH, whereas this happens only after 24 h for L5 and L6, in a considerably low amount (see Supplementary Materials, Figures S18–S20).
The conjugates were dissolved in ddH2O containing 10% DMSO (stock solution: 100 μM) and diluted with mouse plasma to a final concentration of 10 μM. The mixture was incubated and stirred at 37 °C, 600 rpm, and 30 µL aliquots were collected after 0 min, 0.5, 1, 2, 4, 8 and 24 h, in triplicates. Then, to each plasma sample, 90 µL of 0.1% formic acid containing MeCN was added, and the samples were frozen at −25 °C for ≥30 min to aid protein precipitation. Large plasma proteins were removed by centrifugation (15 min, 5000× g, 4 °C). Aliquots of 50 µL supernatant were diluted with an equal volume of ddH2O + 0.1% formic acid and analysed by LC–MS. Control measurements were performed in the same manner (10 μM bioconjugate in 100% ddH2O).

healthy NOD-SCID mice = test: In vivo chronic toxicity study in healthy mice; design: species or system mouse; details: 20 mg/kg calculated on Dau content, every 5th day, four treatments, n = 3
Protocol: Based on the stability assay performed in murine plasma, we decided to investigate L5 and L6 in vivo. To determine the dosage for the tumour growth inhibition experiment, we performed a chronic toxicity study using healthy mice. PDCs were administered every 5th day in three different doses calculated on the Dau content: 5 mg/kg, 10 mg/kg, and 20 mg/kg (Figure 4A). […] When 10 mg/kg drug was applied, the fitness of mice was not affected more than that of mice that received 5 mg/kg.
The toxicity experiments were done in healthy NOD-SCID mice. Treatments were administered every 5th day. Three different concentrations were tested, 5 mg/kg, 10 mg/kg and 20 mg/kg, respectively. Each group consisted of three mice. Mouse weight was monitored five times per week.

[7] = tested on: PC-3 human prostatic adenocarcinoma xenograft in NOD-SCID mice; test: In vivo tumour growth inhibition, subcutaneous PC-3 xenograft; design: species or system mouse; details: 10 mg/kg on Dau content i.p. every 5th day, n = 8
Protocol: The testing of the antitumour conjugates was carried out in a murine xenograft model. It was established by inoculating subcutaneously 100 µL of cell suspension of PC-3 prostate cancer cells with a concentration of 2 × 10^7 cells/mL.
Once the tumour volume reached 60 mm^3, mice were randomised and assigned to different groups for each treatment, respectively 0.9% saline as control, free daunorubicin, L5, and L6. Each group consisted of eight mice. Peptide–drug conjugates were injected intraperitoneally every 5th day, five times in total (daunorubicin dosage of 10 mg/kg for each treatment). In the case of free daunorubicin, two treatments were administered at the same time points as the first two treatments with conjugates, with a dosage of 1 mg/kg, the maximum tolerated dose (MTD). Weight and tumour size of mice were monitored throughout the whole experiment, two times per week. On day 33, mice were euthanized, and primary tumour, heart, lung, liver and spleen were harvested and stored in 4% formalin (Molar Chemicals, Halásztelek, Hungary). After 2–3 days of incubation in formalin, tissue samples were examined macroscopically. Organs and primary tumours from the different treatment groups were weighed and inspected under a stereomicroscope to see any occurrent changes in morphology compared to the controls.

fragment found (mouse plasma): Dau=Aoa-Leu-OH (M1), minor, 24 h
cleaved bond [1]: Leu-Arg, 15 min
Compound: Dau=Aoa-LRRY-fQWAV-β-Ala-H-Sta-Nle
not cleaved (incomplete DMEM): highly stable for 1.5 h; no significant loss (<30%) after 3 h
fragment found [1]: Dau=Aoa-LR-OH; also recorded: H2N-RY-fQWAV-βAla-H-Sta-Nle-NH2; also recorded: H2N-Y-fQWAV-βAla-H-Sta-Nle-NH2; also recorded: H2N-RY-fQW-OH

Compound: CCCC[C@H](NC(=O)C(C)(C)NC(=O)[C@H](Cc1c[nH]cn1)NC(=O)CCNC(=O)[C@@H](NC(=O)[C@H](C)NC(=O)[C@H](Cc1c[nH]c2ccccc12)NC(=O)[C@H](CCC(N)=O)NC(=O)[C@@H](Cc1ccccc1)NC(=O)[C@H](Cc1ccc(O)cc1)NC(=O)[C@H](CCCNC(=N)N)NC(=O)[C@H](CCCNC(=N)N)NC(=O)[C@H](CC(C)C)NC(=O)CON=C(C)[C@]1(O)Cc2c(O)c3c(c(O)c2[C@@H](O[C@H]2C[C@H](N)[C@H](O)[C@H](C)O2)C1)C(=O)c1c(OC)cccc1C3=O)C(C)C)C(N)=O ({Daunorubicin(13-NOCH2CO)}-LRRY[dF]QWAV[βAla]H[Aib][Nle]-NH2)
time to release of active metabolite Dau=Aoa-Leu-OH: < 30 min

Compound: CC(=O)N[C@H](Cc1ccccc1)C(=O)N[C@@H](CCC(N)=O)C(=O)N[C@@H](Cc1c[nH]c2ccccc12)C(=O)N[C@@H](C)C(=O)N[C@H](C(=O)NCC(=O)N[C@@H](Cc1c[nH]cn1)C(=O)N[C@@H](CC(C)C)[C@@H](O)CC(=O)N[C@@H](CC(C)C)C(N)=O)C(C)C [FP1]
IC50 [2]: > 100 µM
IC50 [3]: > 100 µM
IC50 [4]: > 100 µM

cleaved bond [1]: Leu-Arg, 15 min
Compound: Dau=Aoa-LRRY-fQWAV-β-Ala-H-Aib-Nle
fragment found [1]: Dau=Aoa-LR-OH; also recorded: H2N-RY-fQWAV-β-Ala-H-Aib-Nle-NH2; also recorded: H2N-Y-fQWAV-β-Ala-H-Aib-Nle-NH2; also recorded: H2N-RY-fQW-OH

Compound: CCCC[C@H](NC(=O)C[C@H](O)[C@H](CC(C)C)NC(=O)[C@H](Cc1c[nH]cn1)NC(=O)CCNC(=O)[C@@H](NC(=O)[C@H](C)NC(=O)[C@H](Cc1c[nH]c2ccccc12)NC(=O)[C@H](CCC(N)=O)NC(=O)[C@@H](Cc1ccccc1)NC(C)=O)C(C)C)C(N)=O [FP2] (Ac-[dF]QWAV[βAla]H[Sta][Nle]-NH2)
IC50 [2]: > 100 µM
IC50 [3]: > 100 µM
IC50 [4]: > 100 µM

fragment found (mouse plasma): Dau=Aoa-Leu-OH (M1), minor, 2 h
cleaved bond [1]: Leu-Arg, 15 min
Compound: Dau=Aoa-LRRY-QWAVGHL-Nle
not cleaved (incomplete DMEM): highly stable for 1.5 h; no significant loss (<20%) after 3 h
fragment found [1]: Dau=Aoa-LR-OH; also recorded: Dau=Aoa-LRR-OH

Compound: CCCC[C@H](NC(=O)C[C@H](O)[C@H](CC(C)C)NC(=O)[C@H](Cc1c[nH]cn1)NC(=O)CCNC(=O)[C@@H](NC(=O)[C@H](C)NC(=O)[C@H](Cc1c[nH]c2ccccc12)NC(=O)[C@H](CCC(N)=O)NC(=O)[C@@H](Cc1ccccc1)NC(=O)[C@H](Cc1ccc(O)cc1)NC(=O)[C@H](CCCNC(=N)N)NC(=O)[C@H](CCCNC(=N)N)NC(=O)[C@H](CC(C)C)NC(=O)CON=C(C)[C@]1(O)Cc2c(O)c3c(c(O)c2[C@@H](O[C@H]2C[C@H](N)[C@H](O)[C@H](C)O2)C1)C(=O)c1c(OC)cccc1C3=O)C(C)C)C(N)=O [L6, (Dau=Aoa)-LRRY-BBN[D-Phe6, β-Ala11, Sta13, Nle14]] ({Daunorubicin(13-NOCH2CO)}-LRRY[dF]QWAV[βAla]H[Sta][Nle]-NH2)
Loss of conjugate after 3 h [5]: < 30%
Time after which release of the toxic metabolite Dau=Aoa-Leu-OH starts [6]: 24 h
remaining at 24 h, 10 μM [6]: > 80%
Decrease in mouse weight (healthy NOD-SCID mice): 10–15%
Toxicity during the tumour growth inhibition experiment [7]: lower toxicity compared to free daunorubicin

Compound: COc1cccc2c1C(=O)c1c(O)c3c(c(O)c1C2=O)C[C@@](O)(C(C)=NOCC(=O)N[C@@H](CC(C)C)C(=O)N[C@@H](CCCNC(=N)N)C(=O)N[C@@H](CCCNC(=N)N)C(=O)N[C@@H](Cc1ccc(O)cc1)C(=O)N[C@H](Cc1ccccc1)C(=O)N[C@@H](CCC(N)=O)C(=O)N[C@@H](Cc1c[nH]c2ccccc12)C(=O)N[C@@H](C)C(=O)N[C@H](C(=O)NCC(=O)N[C@@H](Cc1c[nH]cn1)C(=O)N[C@@H](CC(C)C)[C@@H](O)CC(=O)N[C@@H](CC(C)C)C(N)=O)C(C)C)C[C@@H]3O[C@H]1C[C@H](N)[C@H](O)[C@H](C)O1 [L5, (Dau=Aoa)-LRRY-BBN[D-Phe6, Sta13, Leu14]] ({Daunorubicin(13-NOCH2CO)}-LRRY[dF]QWAVGH[Sta]L-NH2)
Loss of conjugate after 3 h [5]: < 20%
Time after which release of the toxic metabolite Dau=Aoa-Leu-OH starts [6]: 24 h
remaining at 24 h, 10 μM [6]: > 80%
Decrease in mouse weight (healthy NOD-SCID mice): 10–15%
Toxicity during the tumour growth inhibition experiment [7]: lower toxicity compared to free daunorubicin
time to release of active metabolite Dau=Aoa-Leu-OH: < 30 min

fragment found (mouse plasma): Dau=Aoa-Leu-OH (M1), minor, 24 h
cleaved bond [1]: Leu-Arg, 15 min
Compound: Dau=Aoa-LRRY-fQWAVGH-Sta-L
not cleaved (incomplete DMEM): highly stable for 1.5 h; no significant loss (<20%) after 3 h
fragment found [1]: Dau=Aoa-LR-OH; also recorded: H2N-RY-fQWAVGH-Sta-L-NH2; also recorded: H2N-VGH-Sta-L-NH2; also recorded: H2N-GH-Sta-L-NH2; also recorded: H2N-RY-fQW-OH; also recorded: H2N-RYfQ-OH

Reference: publication PMC9967152 (International Journal of Molecular Sciences, 2023)
